Experimental findings from patent publication US20230416225A1, “DIAMINOPYRIMIDINE CARBOXAMIDE INHIBITORS OF HPK1” (MERCK SHARP & DOHME LLC, priority 2020, published 2023) are described below.

The target in this experiment is T1, Human HPK1, catalytic domain (Homo sapiens, UniProt Q92918).
T1 construct: purchased Carna
T1 sequence (Q92918 1-346): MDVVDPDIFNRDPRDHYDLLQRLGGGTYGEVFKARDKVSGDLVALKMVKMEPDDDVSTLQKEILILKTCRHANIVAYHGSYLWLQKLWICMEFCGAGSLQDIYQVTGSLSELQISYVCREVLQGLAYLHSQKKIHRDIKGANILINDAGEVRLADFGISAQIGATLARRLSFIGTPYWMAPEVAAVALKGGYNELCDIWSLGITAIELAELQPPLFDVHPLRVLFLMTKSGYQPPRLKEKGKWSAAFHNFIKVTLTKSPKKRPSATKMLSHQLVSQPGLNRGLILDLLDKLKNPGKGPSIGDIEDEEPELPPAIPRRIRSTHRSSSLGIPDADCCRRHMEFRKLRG
The experiment can be described thus: HPK1-SLP76 TR-FRET assay. Format: biochemical. The note with it: 75 pM HPK1, 10 uM ATP, 10 nM SLP76, 30 min compound pre-incubation. In general terms: Time-resolved FRET reads energy transfer from a long-lived donor to a nearby acceptor.

Broadly, the IC50 is the concentration that inhibits the measured activity by half. Low readings indicate greater potency in that assay, high ones weaker potency in that assay. `CCC1[C@@H](C(=O)Nc2ncc(C(N)=O)c(Nc3ccccc3Br)n2)[C@@H]1c1cnn(C)c1` (stereo partly drawn) [Example 22-2, 4-[(2-bromophenyl)amino]-2-{[(1R,3R)-2-ethyl-3-(1-methyl-1H-pyrazol-4-yl)cyclopropane-1-carbonyl]amino}pyrimidine-5-carboxamide] showed an IC50 of 468 nM.

Molecule `COc1cc2c(cc1Nc1ncc(C(N)=O)c(Nc3ccccc3Br)n1)CN(C(=O)C1(C)CCC1)CC2` [Example 12-8, 4-[(2-bromophenyl)amino]-2-{[6-methoxy-2-(1-methylcyclobutane-1-carbonyl)-1,2,3,4-tetrahydroisoquinolin-7-yl]amino}pyrimidine-5-carboxamide] showed an IC50 of 344 nM.

Regarding `Cn1ncc(Nc2ncc(C(N)=O)c(Nc3cccc4c3CCNC4=O)n2)c1C(F)F` [Example 7-54, 2-{[5-(difluoromethyl)-1-methyl-1H-pyrazol-4-yl]amino}-4-[(1-oxo-1,2,3,4-tetrahydroisoquinolin-5-yl)amino]pyrimidine-5-carboxamide], half-maximal inhibition (IC50) was put at 82.5 nM.

`COc1cc2c(cc1Nc1ncc(C(N)=O)c(Nc3cccc(CCO)c3)n1)CNCC2` [Example 7-75, 4-{[3-(2-hydroxyethyl)phenyl]amino}-2-[(6-methoxy-1,2,3,4-tetrahydroisoquinolin-7-yl)amino]pyrimidine-5-carboxamide] displayed an IC50 of 0.99 nM.

Consider `COc1cc2c(cc1Nc1ncc(C(N)=O)c(NC3CCC(c4ccccc4)C3)n1)CN(C)CC2` (stereo not shown) [Example 26-12, 2-[(6-methoxy-2-methyl-1,2,3,4-tetrahydroisoquinolin-7-yl)amino]-4-[(3-phenylcyclopentyl)amino]pyrimidine-5-carboxamide], for which the IC50 turned out to be 18.1 nM.

Molecule `COc1cc(C2CCCN2)ccc1Nc1ncc(C(N)=O)c(Nc2ccccc2C(F)(F)F)n1` (stereo not shown) [Example 8-1, 2-((2-Methoxy-4-(pyrrolidin-2-yl)phenyl)amino)-4-((2-(trifluoromethyl)phenyl)amino)pyrimidine-5-carboxamide] registered a half-maximal inhibitory concentration (IC50) of 1.26 nM.

The molecule `COc1ncccc1Nc1ncc(C(N)=O)c(Nc2cccc3c2CCNC3=O)n1` [Example 25-45, 2-[(2-methoxypyridin-3-yl)amino]-4-[(1-oxo-1,2,3,4-tetrahydroisoquinolin-5-yl)amino]pyrimidine-S-carboxamide] displayed an IC50 of 41.3 nM.

On to `COc1cc2c(cc1Nc1ncc(C(N)=O)c(NC3CCC(OC)CC3)n1)CN(C)CC2` (stereo not shown) [Example 26-31, 4-[(4-methoxycyclohexyl)amino]-2-[(6-methoxy-2-methyl-1,2,3,4-tetrahydroisoquinolin-7-yl)amino]pyrimidine-5-carboxamide], for which the IC50 stood at 5.18 nM.

As to `COc1cc2c(cc1Nc1ncc(C(N)=O)c(NC3CCc4ccc(F)cc43)n1)CN(C)CC2` (stereo not shown) [Example 26-25, 4-[(6-fluoro-2,3-dihydro-1H-inden-1-yl)amino]-2-[(6-methoxy-2-methyl-1,2,3,4-tetrahydroisoquinolin-7-yl)amino]pyrimidine-5-carboxamide], the IC50 amounted to 0.22 nM.

In the case of `COc1cc2c(cc1Nc1ncc(C(N)=O)c(Nc3ccccc3C(F)(F)F)n1)C(C1CC1)N(C)CC2` (single isomer, unassigned) [Example 20-2, 2-((1-cyclopropyl-6-methoxy-2-methyl-1,2,3,4-tetrahydroisoquinolin-7-yl)amino)-4-((2-(trifluoromethyl)phenyl)amino)pyrimidine-5-carboxamide], the IC50 was found to be 0.12 nM.

For the molecule `COc1cc2c(cc1Nc1ncc(C(N)=O)c(Nc3ccccc3Br)n1)CN(C1CCOCC1)CC2` [Example 9-7, 4-[(2-bromophenyl)amino]-2-{[6-methoxy-2-(oxan-4-yl)-1,2,3,4-tetrahydroisoquinolin-7-yl]amino}pyrimidine-5-carboxamide], the IC50 is 0.84 nM.

`COc1cc2c(cc1Nc1ncc(C(N)=O)c(Nc3cccc(C4(C#N)CC4)c3)n1)CN(C)CC2` [Example 7-32, 4-{[3-(1-cyanocyclopropyl)phenyl]amino}-2-[(6-methoxy-2-methyl-1,2,3,4-tetrahydroisoquinolin-7-yl)amino]pyrimidine-5-carboxamide]: the IC50 stood at 0.41 nM.

`Cc1cccc(F)c1Nc1nc(Nc2cc3c(cc2F)CCN(C)C3)ncc1C(N)=O` [Example 4-6] yielded an IC50 of 0.11 nM.

Consider `COc1cc2c(cc1Nc1ncc(C(N)=O)c(Nc3ccccc3Br)n1)CN(CC(F)F)CC2` [Example 10-3, 4-((2-bromophenyl)amino)-2-((2-(2,2-difluoroethyl)-6-methoxy-1,2,3,4-tetrahydroisoquinolin-7-yl)amino)pyrimidine-5-carboxamide], for which the midpoint of inhibition, the IC50, lay at 28.9 nM.

For `COc1cc2c(cc1Nc1ncc(C(N)=O)c(Nc3ccccc3Br)n1)CN(C(=O)C1CCC1(F)F)CC2` (stereo not shown) [Example 12-10, 4-[(2-bromophenyl)amino]-2-{[2-(2,2-difluorocyclobutane-1-carbonyl)-6-methoxy-1,2,3,4-tetrahydroisoquinolin-7-yl]amino}pyrimidine-5-carboxamide], the IC50 was 186 nM.

On to `COc1cc2c(cc1Nc1ncc(C(N)=O)c(Nc3ccc(F)cc3F)n1)CN(C)CC2` [Example 4-10, 4-[(2,4-difluorophenyl)amino]-2-[(6-methoxy-2-methyl-1,2,3,4-tetrahydroisoquinolin-7-yl)amino]pyrimidine-5-carboxamide], for which the IC50 was 1.34 nM.

`COc1cc2c(cc1Nc1ncc(C(N)=O)c(Nc3ccccc3CC3(C#N)CCC3)n1)CN(C)CC2` [Example 13-11, 4-({2-[(1-cyanocyclobutyl)methyl]phenyl}amino)-2-[(6-methoxy-2-methyl-1,2,3,4-tetrahydroisoquinolin-7-yl)amino]pyrimidine-5-carboxamide] came in with an IC50 of 0.4 nM.

Molecule `COc1cc2c(cc1Nc1ncc(C(N)=O)c(Nc3ccccc3Br)n1)CN(C(=O)C1(C(F)(F)F)CCC1)CC2` [Example 12-6, 4-[(2-bromophenyl)amino]-2-({6-methoxy-2-[1-(trifluoromethyl)cyclobutane-1-carbonyl]-1,2,3,4-tetrahydroisoquinolin-7-yl}amino)pyrimidine-5-carboxamide] yielded an IC50 of 27.7 nM.

`COc1cc2c(cc1Nc1ncc(C(N)=O)c(NC3CCc4cccc(OC)c43)n1)CN(C)CC2` (stereo not shown) [Example 26-34, 4-[(7-methoxy-2,3-dihydro-1H-inden-1-yl)amino]-2-[(6-methoxy-2-methyl-1,2,3,4-tetrahydroisoquinolin-7-yl)amino]pyrimidine-5-carboxamide] registered an IC50 of 9.66 nM.

With `NC(=O)c1cnc(Nc2cccc3ccccc23)nc1Nc1cccc2c1CCNC2=O` [Example 25-14, 2-[(naphthalen-1-yl)amino]-4-[(1-oxo-1,2,3,4-tetrahydroisoquinolin-5-yl)amino]pyrimidine-5-carboxamide], it took 136 nM to reach half-maximal inhibition (IC50).

Take `COc1cc2c(cc1Nc1ncc(C(N)=O)c(Nc3ccccc3N3C(=O)OC[C@@H]3C)n1)CN(C)CC2` [Example 7-2, 2-[(6-methoxy-2-methyl-1,2,3,4-tetrahydroisoquinolin-7-yl)amino]-4-({2-[(4S)-4-methyl-2-oxo-1,3-oxazolidin-3-yl]phenyl}amino)pyrimidine-5-carboxamide]: the IC50 came to 0.15 nM.

In the case of `COc1cc2c(cc1Nc1ncc(C(N)=O)c(N[C@H]3CCCc4cc(F)ccc43)n1)CN(C)CC2` [Example 26-47, 4-{[(1S)-6-fluoro-1,2,3,4-tetrahydronaphthalen-1-yl]amino}-2-[(6-methoxy-2-methyl-1,2,3,4-tetrahydroisoquinolin-7-yl)amino]pyrimidine-5-carboxamide], the IC50 turned out to be 3.01 nM.
